This test relates to BDF1 mice, B16 melanoma ip, median survival T/C. The test is described as follows: NCI In Vivo Anticancer Drug Screen. Data for tumor model B16 Melanoma (intraperitoneal) in B6D2F1 (BDF1) mice. Conditions: endpoint: median survival time, higher = longer survival. Summed up: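 Read-out: survival or tumor size, given as treated/control ratio. Controls received vehicle only; animals bore transplantable tumors.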

[1] abbreviates: dose: 50.0 mg/kg/injection, schedule: Q01DX009 (ip), vehicle: saline with Tween-80.
Where [2] appears, read: dose: 12.5 mg/kg/injection, schedule: Q01DX009 (ip), vehicle: saline with Tween-80.
The mark [3] stands for this setting: dose: 25.0 mg/kg/injection, schedule: Q01DX009 (ip), vehicle: saline with Tween-80.
Setting [4] is: dose: 100.0 mg/kg/injection, schedule: Q04DX003 (ip), vehicle: Klucel (hydroxypropylcellulose) (HPC).
Setting [5] is: dose: 2.5 mg/kg/injection, schedule: Q01DX009 (ip), vehicle: saline with Tween-80.
[6] abbreviates: dose: 100.0 mg/kg/injection, schedule: Q01DX009 (ip), vehicle: Klucel (hydroxypropylcellulose) (HPC).
[7] abbreviates: dose: 6.25 mg/kg/injection, schedule: Q01DX009 (ip), vehicle: saline.
Setting [8] is: dose: 12.5 mg/kg/injection, schedule: Q01DX009 (ip), vehicle: saline.
Where [9] appears, read: dose: 200.0 mg/kg/injection, schedule: Q01DX009 (ip), vehicle: Klucel (hydroxypropylcellulose) (HPC).

The structures appear in SMILES notation. Values joined by “and” are separate entries in the source; they are usually repeats but may differ in a detail not shown here. Identical values can stand only once. Inconclusive results and toxic doses are left out. Numbered stars: 1 amine (or outer) side, 2 acyl side, 3 side chain; on linkers, the order of the positions; unused ones are H or OH. Bridge positions count the residues as written; N and C are the ends. Square brackets hold non-standard residues; d marks the D form. Peptide text beside a SMILES is read from it. I, II: the chains in the order shown. Actinocin(1to9) = Cc1c2oc3c(C)ccc(C(=O)[*:2])c3nc-2c(C(=O)[*:1])c(N)c1=O; NMeV = CN[CH](C(=O)O)C(C)C; Aze = O=C(O)[CH]1CCN1; Sar = CNCC(=O)O

Turning to `C1CCC2[N-]CC3CCCCC3[N-]CC3CCCCC3[N-]CC3CCCCC3[N-]CC2C1.[Cu+2].[O-][Cl+3]([O-])([O-])O` (stereo unspecified), the T/C is, setting by setting: (dose: 3.12 mg/kg/injection, schedule: Q01DX009 (ip), vehicle: Klucel (hydroxypropylcellulose) (HPC)) 153 % of control; (dose: 6.25 mg/kg/injection, schedule: Q01DX009 (ip), vehicle: Klucel (hydroxypropylcellulose) (HPC)) 161 % of control; (dose: 12.5 mg/kg/injection, schedule: Q01DX009 (ip), vehicle: Klucel (hydroxypropylcellulose) (HPC)) 164 % of control.

As for `c1ccc2c(NCCCCCCCCNc3c4ccccc4nc4ccccc34)c3ccccc3nc2c1`, the T/C is, setting by setting: (dose: 5.0 mg/kg/injection, schedule: Q01DX009 (ip), vehicle: Klucel (hydroxypropylcellulose) (HPC)) 151 % of control and 159 % of control; (dose: 10.0 mg/kg/injection, schedule: Q01DX009 (ip), vehicle: Klucel (hydroxypropylcellulose) (HPC)) 164 % of control; (dose: 20.0 mg/kg/injection, schedule: Q01DX009 (ip), vehicle: Klucel (hydroxypropylcellulose) (HPC)) 156 % of control.

Regarding `NC(N)=Nc1ccc(C(=O)O)cc1`, the T/C (dose: 33.0 mg/kg/injection, schedule: Q01DX009 (ip), vehicle: saline with Tween-80) was 100 % of control; the T/C under setting [1] was 96 % of control; the T/C (dose: 75.0 mg/kg/injection, schedule: Q01DX009 (ip), vehicle: saline with Tween-80) was 96 % of control.

As for `O=NN(CCBr)C(=O)Nc1ccccc1`, the T/C under setting [2] was 152 % of control; the T/C under setting [3] was 202 % of control; the T/C (dose: 37.5 mg/kg/injection, schedule: Q01DX009 (ip), vehicle: saline with Tween-80) was 171 % of control; the T/C under setting [1] was 177 % of control.

With `COc1cccc(CN(C)CCC(=O)O)c1`, the T/C was 104 % of control under setting [4]; 102 % of control (dose: 200.0 mg/kg/injection, schedule: Q04DX003 (ip), vehicle: Klucel (hydroxypropylcellulose) (HPC)); 101 % of control (dose: 400.0 mg/kg/injection, schedule: Q04DX003 (ip), vehicle: Klucel (hydroxypropylcellulose) (HPC)).

As for `OC1CC2CC1C=C2c1ccccc1` (stereo unspecified), the T/C reads like this: (dose: 100.0 mg/kg/injection, schedule: Q04DX003 (ip), vehicle: saline with Tween-80) 102 % of control; (dose: 200.0 mg/kg/injection, schedule: Q04DX003 (ip), vehicle: saline with Tween-80) 105 % of control; (dose: 400.0 mg/kg/injection, schedule: Q04DX003 (ip), vehicle: saline with Tween-80) 94 % of control.

As to `Cc1c2oc3c(C)ccc(C(=O)NC4C(=O)NC(C(C)C)C(=O)N5CCCC5C(=O)N(C)CC(=O)N(C)C(C(C)C)C(=O)OC4C)c3nc-2c(C(=O)NC2C(=O)NC(C(C)C)C(=O)N3CCC3C(=O)N(C)CC(=O)N(C)C(C(C)C)C(=O)OC2C)c(N)c1=O` (stereo unspecified) (I: TV[Aze][Sar][NMeV] / II: TVP[Sar][NMeV]; ester I:1-I:C, II:1-II:C; linker I:N-II:N via Actinocin(1to9); configuration not given here), the T/C was 172 % of control (dose: 0.23 mg/kg/injection, schedule: Q01DX009 (ip), vehicle: saline + alcohol); 163 % of control (dose: 0.3 mg/kg/injection, schedule: Q04DX003 (ip), vehicle: saline + alcohol); 107 % of control (dose: 19.4 micrograms/kg/injection, schedule: Q01DX009 (ip), vehicle: saline + alcohol); 182 % of control (dose: 37.0 micrograms/kg/injection, schedule: Q01DX009 (ip), vehicle: saline + alcohol); 156 % of control and 190 % of control (dose: 75.0 micrograms/kg/injection, schedule: Q01DX009 (ip), vehicle: saline + alcohol); 151 % of control (dose: 100.0 micrograms/kg/injection, schedule: Q01DX009 (ip), vehicle: saline + alcohol). Also, the T/C (dose: 150.0 micrograms/kg/injection, schedule: Q01DX009 (ip), vehicle: saline + alcohol) was 159 % of control and the T/C (dose: 250.0 micrograms/kg/injection, schedule: Q01DX009 (ip), vehicle: saline + alcohol) was 153 % of control.

In the case of `[Cl][Pt+2][Cl].[NH-]c1ccccc1[NH-]`, the T/C (dose: 0.63 mg/kg/injection, schedule: Q01DX009 (ip), vehicle: saline with Tween-80) was 117 % of control; the T/C (dose: 1.25 mg/kg/injection, schedule: Q01DX009 (ip), vehicle: Klucel (hydroxypropylcellulose) (HPC)) was 100 % of control and 123 % of control; the T/C (dose: 1.25 mg/kg/injection, schedule: Q01DX009 (ip), vehicle: saline with Tween-80) is 117 % of control; the T/C (dose: 2.5 mg/kg/injection, schedule: Q01DX009 (ip), vehicle: Klucel (hydroxypropylcellulose) (HPC)) was 92 % of control; the T/C under setting [5] was 122 % of control; the T/C (dose: 10.0 mg/kg/injection, schedule: Q01DX009 (ip), vehicle: saline with Tween-80) is 92 % of control.

Turning to `Cc1ccc(NC(=O)Nc2ccc(Cl)c(Cl)c2)c(C)c1`, the T/C (dose: 25.0 mg/kg/injection, schedule: Q01DX009 (ip), vehicle: Klucel (hydroxypropylcellulose) (HPC)) is 109 % of control; the T/C (dose: 50.0 mg/kg/injection, schedule: Q01DX009 (ip), vehicle: Klucel (hydroxypropylcellulose) (HPC)) is 103 % of control; the T/C under setting [6] was 92 % of control.

Consider `CCC1NC(=O)C(NC(=O)c2ncccc2O)C(C)OC(=O)C(c2ccccc2)NC(=O)C2CC(=O)CCN2C(=O)C(Cc2ccccc2)N(C)C(=O)C2CCCN2C1=O` (stereo unspecified) (tested in a mixture with another compound), for which the T/C is 104 % of control (dose: 18.75 mg/kg/injection, schedule: Q01DX009 (ip), vehicle: Klucel (hydroxypropylcellulose) (HPC)); 108 % of control (dose: 37.5 mg/kg/injection, schedule: Q01DX009 (ip), vehicle: Klucel (hydroxypropylcellulose) (HPC)); 108 % of control (dose: 75.0 mg/kg/injection, schedule: Q01DX009 (ip), vehicle: Klucel (hydroxypropylcellulose) (HPC)).

Consider `ClC1CCC[N-]C1.ClC1CCC[N-]C1.[Cl][Pt+2][Cl]` (stereo unspecified), for which the T/C by setting is: (dose: 0.78 mg/kg/injection, schedule: Q01DX009 (ip), vehicle: saline) 100 % of control; (dose: 1.56 mg/kg/injection, schedule: Q01DX009 (ip), vehicle: saline) 95 % of control; (dose: 3.13 mg/kg/injection, schedule: Q01DX009 (ip), vehicle: saline) 96 % of control; under setting [7], 100 % of control; under setting [8], 95 % of control.

In the case of `Cc1cc(Cl)ccc1NC(=O)COc1ccc(Cl)cc1`, the T/C is 104 % of control (dose: 3.13 mg/kg/injection, schedule: Q01DX009 (ip), vehicle: saline with Tween-80); 98 % of control (dose: 6.25 mg/kg/injection, schedule: Q01DX009 (ip), vehicle: saline with Tween-80); 88 % of control and 95 % of control under setting [2]; 93 % of control under setting [3]; 91 % of control under setting [1].

`CN(C)c1nc(N)nc(Nc2ccc(Br)cc2)c1N=O`: the T/C under setting [9] was 118 % of control.

For the molecule `Cc1ccc(S(=O)(=O)N(Cc2cccc(CN(S(=O)(=O)c3ccc(C)cc3)S(=O)(=O)c3ccc(C)cc3)c2)S(=O)(=O)c2ccc(C)cc2)cc1`, the T/C under setting [4] was 87 % of control.

For `Cc1cc(Cc2cc(C)cc(C(C)(C)C)c2O)c(O)c(Cc2cc(C)cc(C(C)(C)C)c2O)c1`, the T/C runs as follows: (dose: 100.0 mg/kg/injection, schedule: Q04DX003 (ip), vehicle: gum acacia) 97 % of control; (dose: 200.0 mg/kg/injection, schedule: Q04DX003 (ip), vehicle: gum acacia) 100 % of control.

On to `CC(O)C(=O)[O][Hg][c]1ccccc1` (stereo unspecified), for which the T/C under setting [5] is 102 % of control and the T/C (dose: 5.0 mg/kg/injection, schedule: Q01DX009 (ip), vehicle: saline with Tween-80) was 102 % of control.

As for `CC(=O)CC(=O)Nc1cccc(C)c1`, the T/C is 105 % of control under setting [6]; 100 % of control under setting [9]; 92 % of control (dose: 400.0 mg/kg/injection, schedule: Q01DX009 (ip), vehicle: Klucel (hydroxypropylcellulose) (HPC)).

For `CN(C)CC/C=C1/c2ccccc2COc2ccccc21`, the T/C runs as follows: (dose: 3.12 mg/kg/injection, schedule: Q01DX009 (ip), vehicle: saline) 112 % of control; under setting [7], 102 % of control; under setting [8], 105 % of control; (dose: 25.0 mg/kg/injection, schedule: Q01DX009 (ip), vehicle: saline) 112 % of control; (dose: 50.0 mg/kg/injection, schedule: Q01DX009 (ip), vehicle: saline) 105 % of control.

Consider `CC(C)c1ccc(NC(=O)Nc2cc(Cl)ccc2Cl)cc1`, for which the T/C (dose: 4.0 mg/kg/injection, schedule: Q01DX009 (ip), vehicle: gum acacia) is 93 % of control; the T/C (dose: 8.0 mg/kg/injection, schedule: Q01DX009 (ip), vehicle: gum acacia) was 90 % of control; the T/C (dose: 16.0 mg/kg/injection, schedule: Q01DX009 (ip), vehicle: gum acacia) is 93 % of control.

The record behind these values is PubChem BioAssay AID192 (DTP/NCI, 2004).
